Data from patent US8445467B2, “Reducing risk of type 2 diabetes (T2D)” (Joslin Diabetes Center, Inc., priority 2006, dated 2013).
“And” between values parts separate entries of the source, which are not always exact repeats. Equal values may be shown once. “Also recorded” adds a separate entry of the source.

Tests used:
[1] = tested on: overweight non-diabetic adults; experiment: Glycemia (fasting glucose, OGTT, glycated albumin) in double-masked placebo controlled trial; format: in vivo, human
Text: (§1) The ability of high doses of systemic salsalate to reduce systemic inflammation and improve metabolic parameters was investigated in a double-masked placebo controlled trial of 20 overweight non-diabetic adults (age: 24 yrs±1, gender 17F/3M, BMI 38 kg/m^2±2), evaluated at baseline and after one month of dally administration of oral salsalate 4 g or placebo.
Subjects were under 30 years old, and obese as defined by a body mass Index (BMI) of ≧ 30 kg/m^2 Participants were excluded for recent blood donation, change in weight of more than 5% in the preceding six months or use of medication known to alter weight, acute febrile illness, biochemical evidence of renal or hepatic dysfunction, aspirin allergy, history of gastritis or gastrointestinal bleeding, current medications known to altar glucose metabolism, or diabetes mellitus based on screening evaluation. Female participants were excluded for pregnancy, lactation, or lack of current use of a hormonal or barrier contraceptive method.
(§2) Participants were instructed to consume a standard high-carbohydrate diet (250-300 grams/day) and abstain from strenuous exercise for three days prior to undergoing, baseline and final evaluations. Subjects were additionally instructed not to alter dietary or exercise habits daring the study Blood pressure was measured twice with the patient supine for 10 minutes. Fasting lipids and cytokines were measured, and oral glucose tolerance tests (OGTT) were performed with glucose, insulin, C-peptide and free fatty acid levels measured prior to and 30, 60, 90 and 120 minutes after 75-gram glucose load. All subjects were non-diabetic based on current American Diabetes Association guidelines (Diagnosis and Classification of Diabetes Mellitus. Diabetes Care 28:S37-S42 (2005)). AUC data were calculated by triangulation. Insulin resistance was determined using homeostasis model assessment (HOMA-IR) for insulin and C-peptide as described using the modified formula: HOMA-IRC-peptide=(fasting C-peptide*fasting glucose)/22.5 See, e.g., Matthews et al, Diabetologia 28:41.2-419 (1985); Wallace et al., Diabetes Care 27; 1487-4495 (2004).
(§3) Compliance was evaluated with blood salicylate levels.
(§4) Glucose was measured by glucose oxidation, cholesterol and HDL by cholesterol esterase assay, triglycerides via hydrolysis to glycerol and FFA (Beckman Synchron CX3delta and CX9, Beckman Coulter, Brea, Calif.), and glycohemoglobin by HPLC (TOSHO 2.2™, Tosoh Bioscience, San Francisco, Calif.). Immunoassays were performed in duplicate on serum specimens by commercial assay including RIA for insulin and C-peptide (Diagnostic Systems Laboratories, Webster, Tex.), and adiponectin (Linco research, St. Charles, Mo., USA); ELISA for free fatty acids (WAKO chemicals, Richmond, Va., USA), and IL-6 and VCAM-1 (R& D Systems, Minneapolis, Minn., USA). CRP was analysed by immunoturbidometry (WAKO chemicals, Richmond, Va., USA), Salicylate levels were assessed commercially using a colorimetric assay (Quest Laboratories, Cambridge, Mass., USA). Glycated albumin was evaluated with the use of a Hitachi 911 lipid and protein analyzer and kits from AsahiKasei (Tokyo, JP). Glycated albumin was calculated by determining (1) the colorimetric measurement of total, albumin; (2) partial enzymatic digestion of albumin at glycated sites; (3) re-assessment of albumin; (4) % glycated albumin=1-3.
The primary endpoint was change from, baseline in glycemic measures using between group comparisons. Secondary outcomes were also assessed as change from baseline within group. Data are presented as mean±standard error unless otherwise noted. Unpaired (salsalate vs. placebo) and paired (pre vs. post) Student t-tests were performed. Treatment effects were determined by calculating differences between baseline sad end of treatment values divided by the baseline value to determine a percent change for each participant. […]

[2] = tested on: overweight non-diabetic adults; experiment: Insulin, C-peptide and HOMA-IR in double-masked placebo controlled trial; format: in vivo, human
Text: as §1, §2, §3, §4
(§5) The primary endpoint was change from, baseline in glycemic measures using between group comparisons. Secondary outcomes were also assessed as change from baseline within group. Data are presented as mean±standard error unless otherwise noted. Unpaired (salsalate vs. placebo) and paired (pre vs. post) Student t-tests were performed. Treatment effects were determined by calculating differences between baseline sad end of treatment values divided by the baseline value to determine a percent change for each participant. Repeated measures of ANOVA and area under curve analyses were performed to compare response to oral glucose load before and after treatment. Only subjects completing the trial were included in data analysis. Results were considered significant with two-tailed p-values <0.05.

[3] = tested on: overweight non-diabetic adults; experiment: Cytokines, adipokines and inflammatory markers pre- and post-one month of therapy; format: in vivo, human
Description: as §1, §4, §5
To evaluate the proposed anti-inflammatory mechanism of action for improvement in glycemia, cytokines and adipokines were assessed pre- and post-one month of therapy in the same population described in Example 1.

[4] = tested on: IKKβ/NF-κB; settings: cited from earlier work
[5] = tested on: cyclooxygenase enzymes; settings: cited from earlier work
[6] = tested on: overweight non-diabetic adults; experiment: Safety and tolerability in the trial
[7] = following one month of salsalate therapy
[8] = over the one-month period, p>0.1

O=C(Oc1ccccc1C(=O)O)c1ccccc1O [salsalate, 2-hydroxybenzoE acid, 2-carboxyphenyl ester]
fasting glucose compared to placebo (FIG. 1A) [1]: reduced | glycated albumin compared to placebo (FIG. 1A) [1]: reduced | post oral glucose challenge glucose area under the curve compared to placebo (FIG. 1A) [1]: reduced | fasting plasma glucose level after treatment ([1]; after one month of salsalate, baseline 5.0±0.2, p<0.03): 4.6 ± 0.1 mmol/L | glycated albumin after treatment ([1]; after one month of salsalate, baseline 12.4±0.4%, p<0.003): 10.3±0.3% | reduction in glucose area under the curve during oral glucose tolerance testing ([1]; oral salsalate 4 g daily, one month, 75 g oral glucose, placebo increased by 6±3%, p=0.003): 14±5% | reduction in fasting glucose, change from baseline ([1]; oral salsalate 4 g daily, one month, mean±SE, placebo increase of 5±2%, p<0.002): 8±4% | reduction in glycated albumin, change from baseline ([1]; oral salsalate 4 g daily, one month, placebo 0.6±0.9%, p<0.002): 17±4% | glycemia response to glucose load ([1]; within group, one month of salsalate, repeated measure analysis p<0.01): improvements in glycemia; also recorded: improved | fasting C-peptide levels after treatment ([2]; after one month of salsalate, baseline 1.6±0.2, p=0.02): 1.1 ± 0.2 nmol/L | reduction in C-peptide AUC post glucose challenge ([2]; one month of salsalate, placebo increase of 4±7%, p=0.02): 23±4% | reduction in fasting C-peptide, change from baseline ([2]; one month of salsalate, placebo increase of 5±6%, p<0.01): 30±7% | HOMA IRc peptide lowered by ([2]; one month of salsalate, placebo increased 9±5%, p=0.003): 35±8% | HOMA-IR using insulin, post treatment ([2]; post one month of salsalate, pre 4.6±0.9, p=0.9, not significantly changed): 4.2±0.6 | fasting insulin values ([2]; pre vs post one month of salsalate): unchanged | insulin levels following glucose challenge ([2]; pre- and post-salsalate, 75 g oral glucose): remained unchanged | insulin sensitivity calculated by HOMA IRc-peptide (FIG. 2C) ([2]; salsalate compared to placebo): improvement | C peptide response to Oral Glucose Tolerance Test calculated by AUC (FIG. 2C) ([2]; salsalate vs placebo): significant between group difference | adiponectin compared to placebo (FIG. 3A) [3]: increased significantly | fasting non-esterified fatty acids (FFA) levels after treatment ([3]; after one month of salsalate, baseline 0.46±0.08, p=0.05): 0.25±0.05 mEq/L | adiponectin after treatment ([3]; after one month of salsalate, baseline 10.6±1.7, p=0.01): 16.2 ± 2.7 mg/L | CRT concentrations after treatment ([3]; after one month of salsalate, baseline 48.2±10.5, p=0.05): 30.2 ± 7.4 nmol/L | II-6 [3, 7]: did not change significantly | soluble VCAM-1 [3, 7]: did not change significantly | adiponectin increase, change from baseline ([3]; one month of salsalate, placebo decreased 1±5%, p=0.003): 56±17% | C-reactive protein (CRP) following treatment (FIG. 3B) ([3]; p<0.05): lower | Free Fatty Acids (FFA) following treatment (FIG. 3B) ([3]; p<0.05): lower | inhibition of IKKβ/NF-κB compared to aspirin [4]: equipotent inhibitor | inhibition of cyclooxygenase enzymes compared to aspirin [5]: much weaker inhibitor | reduced dose tolerated without symptoms (individual participants) ([6]; actively treated participants after dose reduction): 3.5 grams per day and 3.0 grams per day | participants with transient mild transaminitis at the final visit ([6]; actively treated, resolved spontaneously): two | changes in anion gap ([6]; during the trial): no noted changes | changes in laboratory analysis of electrolytes ([6]; during the trial): no noted changes | changes in laboratory analysis of renal function ([6]; during the trial): no noted changes | ALT/AST elevation in individual actively treated participants ([6]; final visit, resolved spontaneously): similarly mild elevation in both ALT and AST; also recorded: less than twice the upper range of normal | participants requiring dose reduction due to complaints of tinnitus, headache or dizziness ([6]; initiated on 4.0 grams/day orally in two equal doses, on study medication): Two | symptomatic hypoglycemia ([6]; one month, 4 g daily): No symptomatic hypoglycemia | change in mean alanine aminotransferase (ALT) [6, 8]: no statistically significant change | change in mean aspartate aminotransferase (AST) [6, 8]: no statistically significant change | respiratory distress ([6]; participants with rash on active therapy): No respiratory distress | participants withdrawn due to rash ([6]; received active therapy): three
